Assay results published in patent US20120122727A1, “IN VITRO METHOD FOR PREDICTING WHETHER A COMPOUND IS GENOTOXIC IN VIVO” (priority 2009, published 2012).

System: primary mouse hepatocytes
Experiment: Gene expression (Affymetrix Mouse Genome 430 2.0) in primary mouse hepatocytes, true vs false GTX, 24 h and 48 h
Details: log2, corrected for vehicle control

- Gene expression data AF204959 (Cyp3a25 /// LOC622249) (24 h average): −1.232
Structure (SMILES): O=c1c(O)c(-c2ccc(O)c(O)c2)oc2cc(O)cc(O)c12 [Q, Quercetin]
- Gene expression data AF000969 (Cadps2) (24 h average): −0.5753
- Gene expression data AF022072 (Grb10) (24 h average): 0.3385
- Gene expression data AF065917 (Lif) (24 h average): −0.1024
- Gene expression data AF297615 (Ggta1) (24 h average): 0.8047
- Gene expression data AI594683 (Dmn) (24 h average): −0.2712
- Gene expression data AI596632 (Ptprg /// LOC632664) (24 h average): −0.456
- Gene expression data AI987929 (Ndrg1) (24 h average): 1.663
- Gene expression data AK004419 (Fbxl17) (24 h average): −0.01537
- Gene expression data AK005731 (1700007K13Rik) (24 h average): 0.6919
- Gene expression data AK007766 (1810044A24Rik) (24 h average): −0.04463
- Gene expression data AK007854 (1810053B23Rik) (24 h average): −0.9336
- Gene expression data AK009736 (Gpr137b /// LOC664862 /// LOC673335) (24 h average): 1.171
- Gene expression data AK010447 (Smyd3) (24 h average): 0.0701
- Gene expression data AK014608 (4632434l11Rik) (24 h average): 0.03273
- Gene expression data AK019979 (2610528E23Rik) (24 h average): 0.2502
- Gene expression data AV095209 (Mthfd1l) (24 h average): 0.8331
- Gene expression data AV141095 (1110033M05Rik) (24 h average): 0.2855
- Gene expression data AV173571 (1700106N22Rik) (24 h average): −0.2484
- Gene expression data AV219418 (Ldhb) (24 h average): −0.1808
- Gene expression data AV223474 (Zdhhc14) (24 h average): −0.2496
- Gene expression data AV298304 (Homez) (24 h average): 0.2496
- Gene expression data AV327248 (Zfp365 /// LOC674611) (24 h average): 0.3116
- Gene expression data AV377066 (9130221J18Rik) (24 h average): −0.4922
- Gene expression data AW240761 (Tbc1d5) (24 h average): −0.157
- Gene expression data AW543460 (Pard3) (24 h average): 0.2437
- Gene expression data AW543723 (24 h average): 0.4193
- Gene expression data AW986246 (Maoa) (24 h average): 1.388
- Gene expression data BB027848 (4732466D17Rik) (24 h average): −1.304
- Gene expression data BB043558 (9230114K14Rik) (24 h average): 0.3431
- Gene expression data BB275142 (AW456874) (24 h average): −0.5004
- Gene expression data BB308836 (Ppm1l) (24 h average): 0.1666
- Gene expression data BB318221 (Zdhhc14) (24 h average): −0.1479
- Gene expression data BB463610 (4632434l11Rik) (24 h average): −0.1026
- Gene expression data BB526605 (Mipol1) (24 h average): 0.09617
- Gene expression data BB770528 (Rai2) (24 h average): −0.3109
- Gene expression data BB821363 (Scfd2) (24 h average): −0.2338
- Gene expression data BC004827 (Psat1) (24 h average): 0.9258
- Gene expression data BC008626 (Icam1) (24 h average): −0.3725
- Gene expression data BC010462 (BC010462) (24 h average): −0.5852
- Gene expression data BC012247 (Dcxr) (24 h average): −0.2845
- Gene expression data BC012260 (Psmf1) (24 h average): −0.1689
- Gene expression data BC015270 (Hist2h3c2) (24 h average): −0.3924
- Gene expression data BC016073 (Cdkal1) (24 h average): 0.1993
- Gene expression data BC016265 (Ube2e2) (24 h average): 0.1622
- Gene expression data BC019882 (Acaa1b) (24 h average): 0.7124
- Gene expression data BC025501 (Aaas) (24 h average): 0.4589
- Gene expression data BC025837 (Sbk1) (24 h average): −0.3383
- Gene expression data BC025915 (Cova1) (24 h average): 0.3176
- Gene expression data BC026422 (Tgm1) (24 h average): 0.28
- Gene expression data BF719766 (Thyn1) (24 h average): 0.1596
- Gene expression data BG065754 (Ccng1) (24 h average): 0.4829
- Gene expression data BG066903 (Kif16b) (24 h average): 0.2506
- Gene expression data BG069873 (Gnb1l) (24 h average): 0.007867
- Gene expression data BG070887 (Gtdc1) (24 h average): −0.2209
- Gene expression data BG076151 (Ppm1d) (24 h average): −0.1367
- Gene expression data BG261907 (Large) (24 h average): 0.3964
- Gene expression data BI651416 (Cdc42bpg) (24 h average): 0.2653
- Gene expression data BI660702 (Ell3) (24 h average): −0.05897
- Gene expression data BM198879 (Ercc5) (24 h average): 0.1402
- Gene expression data BM230508 (A030007D23Rik) (24 h average): 0.3449
- Gene expression data NM_007987 (Fas) (24 h average): 0.1744
- Gene expression data NM_008522 (Ltf) (24 h average): −0.09593
- Gene expression data NM_008576 (Abcc1) (24 h average): 1.2925
- Gene expression data NM_011176 (St14) (24 h average): 0.5914
- Gene expression data NM_011316 (Saa4) (24 h average): −0.1314
- Gene expression data NM_012006 (Acot1) (24 h average): 1.0762
- Gene expression data NM_013866 (Zfp385) (24 h average): 0.06543
- Gene expression data NM_018770 (Igsf4a) (24 h average): 0.4689
- Gene expression data NM_021451 (Pmaip1) (24 h average): −0.611
- Gene expression data NM_025770 (Atg10) (24 h average): 0.2663
- Gene expression data NM_028803 (Gbe1) (24 h average): −0.2509
- Gene expression data NM_030697 (Ankrd47) (24 h average): 1.3142
- Gene expression data NM_053168 (Trim11) (24 h average): −0.02257
- Gene expression data NM_134188 (Acot2) (24 h average): 0.1275
- Gene expression data Y15910 (Diap2) (24 h average): −0.31
- Gene expression AA561726 average (48 h): 0.3473
- Gene expression AF000969 average (48 h): 0.6762
- Gene expression AF022072 average (48 h): 0.7799
- Gene expression AF033112 average (48 h): 0.02593
- Gene expression AF055573 average (48 h): 0.0039
- Gene expression AF069954 average (48 h): −0.168
- Gene expression AF297615 average (48 h): −0.02943
- Gene expression AF335325 average (48 h): −0.3547
- Gene expression AI594683 average (48 h): −0.1952
- Gene expression AI747296 average (48 h): −0.1572
